Assay results reported in ChEMBL document CHEMBL6096669, “Design and synthesis of novel derivatives of bisepoxylignans as potent anti-inflammatory agents involves the modulation of the M1/M2 microglia phenotype via TLR4/NF-κB signaling pathway” (Eur J Med Chem, 2025).
The source made the active and inactive calls. The rule behind the calls is not given here.

Assays:
[1] = system: BV-2; assay: Anti-inflammatory activity against LPS-induced mouse BV-2 cells assessed as decrease in LPS-induced IL-6 mRNA expression at 10 to 20 uM incubated for 4 hrs followed by LPS induced for 12 hrs by RT-PCR analysis relative to control; format: functional, cell-based; details: dose 10-20 µM, time 16.0 hrs
[2] = system: Mus musculus; assay: Anti-neuroinflammatory activity against LPS-induced male C57BL/6 mouse assessed as suppression of LPS-induced p-NF-kappaB protein level at 10 mg/kg, po administered for 3 days followed by induced with LPS by tail vein injection by Western blot analysis; format: functional, organism-based; details: time 3.0 day
[3] = system: BV-2; assay: Anti-inflammatory activity against LPS-induced mouse BV-2 cells assessed as decrease in LPS-induced TNFalpha production at 5 to 10 uM incubated for 4 hrs followed by LPS induced for 24 hrs by Western blotting analysis; format: functional, cell-based; details: dose 5-10 µM
[4] = system: Mus musculus; assay: Anti-neuroinflammatory activity against LPS-induced male C57BL/6 mouse assessed as suppression of LPS-induced p-I-kappaB-alpha protein level at 10 mg/kg, po administered for 3 days followed by induced with LPS by tail vein injection by Western blot analysis; format: functional, organism-based; details: time 3.0 day
[5] = Biodistribution in C57BL/6 mouse spleen at 20 mg/kg, IG measured after 15 mins; format: ADME, organism-based; details: in vivo, po, 0.25 h
[6] = Acute toxicity in C57BL/6 mouse assessed as morphological changes in liver by measuring signs of inflammation at 500 mg/kg, po single dose measured on day 8 by H and E staining based assay; format: organism-based; details: in vivo, 192 h, time 8 day
[7] = Cytotoxicity against mouse BV-2 cells assessed as cell viability at 10 uM measured after 24 hrs by MTT assay relative to control; format: toxicity, cell-based; details: read-out: Activity
[8] = system: Mus musculus; assay: Anti-neuroinflammatory activity against LPS-induced male C57BL/6 mouse assessed as suppression of LPS-induced p-IkappaB-alpha protein level at 20 mg/kg, po administered for 3 days followed by induced with LPS by tail vein injection by Western blot analysis; format: functional, organism-based; details: time 3.0 day
[9] = Biodistribution in C57BL/6 mouse lung at 20 mg/kg, IG measured after 15 mins; format: ADME, organism-based; details: in vivo, po, 0.25 h
[10] = AUCall in rat at 20 mg/kg, po single dose; format: ADME, organism-based; details: in vivo
[11] = Biodistribution in C57BL/6 mouse liver at 20 mg/kg, IG measured after 15 mins; format: ADME, organism-based; details: in vivo, po, 0.25 h
[12] = system: Mus musculus; assay: (§1) Anti-neuroinflammatory activity against LPS-induced male C57BL/6 mouse assessed as suppression of LPS-induced microglial activation by measuring decrease in IBA1 fluorescence intensity at 20 mg/kg, po administered for 3 days followed by induced with LPS by tail vein injection by immunofluorescence staining based assay; format: functional, organism-based; details: time 3.0 day
[13] = system: BV-2; assay: Anti-inflammatory activity against LPS-induced mouse BV-2 cells assessed as decrease in LPS-induced Cyclooxygenase-2 mRNA expression at 5 to 20 uM incubated for 4 hrs followed by LPS induced for 12 hrs by RT-PCR analysis relative to control; format: functional, cell-based; details: dose 5-20 µM, time 16.0 hrs
[14] = Cmax in rat at 20 mg/kg, po single dose; format: ADME, organism-based; details: in vivo
[15] = Acute toxicity in C57BL/6 mouse assessed as change in BUN level at 500 mg/kg, po single dose measured on day 8; format: organism-based; details: in vivo
[16] = system: BV-2; assay: Anti-inflammatory activity against LPS-induced mouse BV-2 cells assessed as decrease in LPS-induced iNOS mRNA expression at 5 uM incubated for 4 hrs followed by LPS induced for 12 hrs by RT-PCR analysis relative to control; format: functional, cell-based; details: time 16.0 hrs
[17] = system: Mus musculus; assay: Anti-neuroinflammatory activity against LPS-induced male C57BL/6 mouse assessed as suppression of LPS-induced IL-6 mRNA level at 20 mg/kg, po administered for 3 days followed by induced with LPS by tail vein injection by RT-PCR analysis; format: functional, organism-based; details: time 3.0 day
[18] = system: Mus musculus; assay: as §1, with “[…]” for “IBA1”; format: functional, organism-based; details: time 3.0 day
[19] = system: BV-2; assay: Anti-inflammatory activity against LPS-induced mouse BV-2 cells assessed as decrease in LPS-induced IL-1beta mRNA expression at 10 to 20 uM incubated for 4 hrs followed by LPS induced for 12 hrs by RT-PCR analysis relative to control; format: functional, cell-based; details: dose 10-20 µM, time 16.0 hrs
[20] = system: Mus musculus; assay: Anti-neuroinflammatory activity against LPS-induced male C57BL/6 mouse assessed as suppression of LPS-induced TNF-alphamRNA level at 20 mg/kg, po administered for 3 days followed by induced with LPS by tail vein injection by RT-PCR analysis; format: functional, organism-based; details: time 3.0 day
[21] = Ratio of AUC in brain to serum in rat at 20 mg/kg, po single dose; format: ADME, organism-based
[22] = Tmax in rat at 20 mg/kg, po single dose; format: ADME, organism-based; details: in vivo
[23] = system: BV-2; assay: Anti-neuroinflammatory activity against LPS-induced mouse BV-2 cells assessed as smaller cell bodies and morphology at 20 uM by bright field microscopy relative to LPS-induced control; format: functional, cell-based
[24] = system: BV-2; assay: Anti-inflammatory activity against LPS-induced mouse BV-2 cells assessed as decrease in LPS-induced iNOS production incubated for 4 hrs followed by LPS induced for 24 hrs by Western blotting analysis; format: functional, cell-based; details: dose 5-20 µM, time 28.0 hrs
[25] = system: Mus musculus; assay: Anti-neuroinflammatory activity against LPS-induced male C57BL/6 mouse assessed as suppression of LPS-induced pathological changes in spleen at 20 mg/kg, po administered for 3 days followed by induced with LPS by tail vein injection by hematoxylin-eosin staining based assay; format: functional, organism-based; details: time 3.0 day
[26] = AUMClast in rat at 20 mg/kg, po single dose; format: ADME, organism-based; details: in vivo
[27] = system: BV-2; assay: Anti-inflammatory activity against LPS-induced mouse BV-2 cells assessed as decrease in LPS-induced Cyclooxygenase-2 production at 5 uM incubated for 4 hrs followed by LPS induced for 24 hrs by Western blotting analysis; format: functional, cell-based
[28] = system: Mus musculus; assay: Anti-neuroinflammatory activity against LPS-induced male C57BL/6 mouse assessed as suppression of LPS-induced neuronal damage by measuring increase in Nissl bodies at 20 mg/kg, po administered for 3 days followed by induced with LPS by tail vein injection; format: functional, organism-based; details: time 3.0 day
[29] = Inhibition of LPS-induced NO production in mouse BV-2 cells at 10 uM measured after 24 hrs followed by induced with LPS for another 24 hrs by ELISA relative to control; format: functional
[30] = system: Mus musculus; assay: Anti-neuroinflammatory activity against LPS-induced male C57BL/6 mouse assessed as suppression of LPS-induced TLR4 protein level at 20 mg/kg, po administered for 3 days followed by induced with LPS by tail vein injection by Western blot analysis; format: functional, organism-based; details: time 3.0 day
[31] = Biodistribution in C57BL/6 mouse kidney at 20 mg/kg, IG measured after 15 mins; format: ADME, organism-based; details: in vivo, po, 0.25 h
[32] = system: BV-2; assay: Anti-inflammatory activity against LPS-induced mouse BV-2 cells assessed as decrease in LPS-induced TNF-alpha mRNA expression at 10 to 20 uM incubated for 4 hrs followed by LPS induced for 12 hrs by RT-PCR analysis relative to control; format: functional, cell-based; details: dose 10-20 µM, time 16.0 hrs
[33] = system: BV-2; assay: Anti-inflammatory activity against LPS-induced mouse BV-2 cells assessed as decrease in LPS-induced Cyclooxygenase-2 mRNA expression at 20 uM incubated for 4 hrs followed by LPS induced for 12 hrs by RT-PCR analysis relative to control; format: functional, cell-based; details: time 16.0 hrs

**Q.** For O=c1[nH]c2ccc(Nc3ncnc4c3ccn4Cc3ccc(F)cc3)cc2[nH]1, which Activity [1] is on record?
**A.** Active

**Q.** What about the Activity [2] of the same compound?
**A.** Not active; No Significant Effect Observed Vs Lps

**Q.** What about the Activity [3] of the same compound?
**A.** Not active; No Significant Effect Observed Vs Lps

**Q.** What about the Activity [4] of the same compound?
**A.** Not active; No Significant Effect Observed Vs Lps

**Q.** What about the Drug uptake [5] of the same compound?
**A.** Active

**Q.** What about the Activity [6] of the same compound?
**A.** Non-toxic

**Q.** What about the viability at 24 h, 10 µM [7] of the same compound?
**A.** 95.3%

**Q.** What about the Activity [8] of the same compound?
**A.** Active

**Q.** What about the Drug uptake [9] of the same compound?
**A.** Active

**Q.** What about the AUC [10] of the same compound?
**A.** 43600 ng·h/mL

**Q.** What about the Drug uptake [11] of the same compound?
**A.** Active

**Q.** What about the Activity [12] of the same compound?
**A.** Active

**Q.** And the Activity [13]?
**A.** Active

**Q.** And the Cmax [14]?
**A.** 7490 ng/mL

**Q.** And the Activity [15]?
**A.** Non-toxic

**Q.** What about the Activity [16] of the same compound?
**A.** Not active; No Significant Effect Observed Vs Lps

**Q.** What about the Activity [17] of the same compound?
**A.** Active

**Q.** And the Activity [18]?
**A.** Active

**Q.** And the Activity [19]?
**A.** Active

**Q.** What about the Activity [20] of the same compound?
**A.** Active

**Q.** What about the Ratio [21] of the same compound?
**A.** 1.9%

**Q.** And the Tmax [22]?
**A.** 1 h

**Q.** What about the Activity [23] of the same compound?
**A.** Active

**Q.** What about the Activity [24] of the same compound?
**A.** Dose-dependent-effect

**Q.** And the Activity [25]?
**A.** Active; Decreased Lps-Induced Visceral Injury (Cell Morphology, Hemorrhage, And Neutrophil Infiltration) And Maintaining Normal Cell Shape And Arrangement And Enhancing Infiltration Of Inflammatory Cells

**Q.** And the AUMClast [26]?
**A.** 269972.2 hr.hr.ng/ml

**Q.** And the Activity [27]?
**A.** Not active; No Significant Effect Observed Vs Lps

**Q.** What about the Activity [28] of the same compound?
**A.** Active

**Q.** What about the inhibition at 10 µM [29] of the same compound?
**A.** 95%

**Q.** What about the Activity [30] of the same compound?
**A.** Active

**Q.** What about the Drug uptake [31] of the same compound?
**A.** Active

**Q.** What about the Activity [32] of the same compound?
**A.** Active

**Q.** What about the Activity [33] of the same compound?
**A.** Active
